SMILES strings stand for the structures.

Broadly, the IC50 is the concentration at which inhibition is half-maximal.

Series [1] is described as follows: Solubility in perfusate (remark). Type of series: physicochemical. The conditions noted are these: aortic ring experiments; higher concentrations could not be tested.
In a further series the target is T1, mTRPC5 (Mus musculus, UniProt Q9QX29).
T1 construct: expressed in transfected cells
T1 sequence (Q9QX29 1-975): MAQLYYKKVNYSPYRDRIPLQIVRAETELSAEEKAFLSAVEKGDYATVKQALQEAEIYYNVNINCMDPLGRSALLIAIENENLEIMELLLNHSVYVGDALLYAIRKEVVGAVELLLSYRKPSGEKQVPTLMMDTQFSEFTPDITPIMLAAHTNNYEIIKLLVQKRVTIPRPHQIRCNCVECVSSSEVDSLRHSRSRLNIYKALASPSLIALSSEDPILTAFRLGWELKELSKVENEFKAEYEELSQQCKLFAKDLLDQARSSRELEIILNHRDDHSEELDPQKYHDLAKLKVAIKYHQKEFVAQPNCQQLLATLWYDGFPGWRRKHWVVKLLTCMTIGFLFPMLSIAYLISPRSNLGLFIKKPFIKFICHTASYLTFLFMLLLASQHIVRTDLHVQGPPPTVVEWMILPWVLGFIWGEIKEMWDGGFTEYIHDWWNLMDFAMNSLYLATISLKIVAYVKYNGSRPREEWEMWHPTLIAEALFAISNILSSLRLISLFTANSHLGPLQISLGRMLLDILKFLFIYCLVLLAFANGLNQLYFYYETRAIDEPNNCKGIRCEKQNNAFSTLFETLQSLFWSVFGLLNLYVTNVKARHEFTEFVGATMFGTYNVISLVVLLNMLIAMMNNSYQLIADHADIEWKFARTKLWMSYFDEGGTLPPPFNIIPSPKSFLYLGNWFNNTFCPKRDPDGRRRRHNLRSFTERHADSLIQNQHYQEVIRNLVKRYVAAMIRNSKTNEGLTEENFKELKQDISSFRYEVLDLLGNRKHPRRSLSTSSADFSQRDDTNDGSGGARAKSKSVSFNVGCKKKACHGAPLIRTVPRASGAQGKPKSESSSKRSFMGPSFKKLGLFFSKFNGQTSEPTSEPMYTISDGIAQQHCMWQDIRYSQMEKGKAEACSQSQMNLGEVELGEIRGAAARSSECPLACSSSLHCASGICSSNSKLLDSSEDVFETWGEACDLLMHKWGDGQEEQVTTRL
In words: Trypsin-induced Ca2+ entry, fluo-4 fluorometric imaging plate reader, TRPC5 HEK-FITR cells. Type of series: cell-based. How it is done:
Cells were grown at 37°C in a humidified atmosphere (5% or 7% CO2) under standard cell culture conditions. Stable human embryonic kidney (HEK) cell lines expressing recombinant mTRPC4ß (GenBank accession number AAC05178); mTRPC5 (GenBank accession number NM_009428) or hTRPC6 (GenBank accession number AF080394) under the control of a tetracycline-inducible promoter were generated using the Flp-In T-Rex (FITR) system (Invitrogen, Karlsruhe, Germany). […]
Cells grown to an almost confluent monolayer on black poly-D-lysine coated 96-well plates (Greiner, Frickenhausen, Germany) were washed with standard extracellular solution (140 mM NaCl, 1 mM MgCl2, 5.4 mM KCl, 2 mM CaCl2, 10 mM HEPES, 10 mM glucose, pH 7.35) and stained (30 min, room temperature) with dye solution (2 µM fluo-4 AM, 0.02% pluronic F127, 0.1% bovine serum albumin in standard extracellular solution). […] Fluo-4 fluorescence was excited at 488 nm with an argon laser and measured using a fluorometric imaging plate reader (Molecular Devices, Sunnyvale, USA). […]
TRPC4- and TRPC5-mediated Ca^2+ influx was stimulated by application of trypsin that activates endogenous Gq-coupled protease activated receptors in HEK cells. […] Compound effects were then calculated from the area under the curve and normalized to the Ca^2+ influx into trypsin-stimulated, non-compound-treated cells. […]

Regarding `C#C[C@]1(OC(C)=O)CC[C@H]2[C@@H]3CCC4=CC(=NO)CC[C@@H]4[C@H]3CC[C@@]21CC` (mixture of isomers) [norgestimate], the Solubility result in series [1] is “limited solubility”.

Regarding `CC(=O)[C@H]1CC[C@H]2[C@@H]3CCC4=CC(=O)CC[C@]4(C)[C@H]3CC[C@]12C` [progesterone], the IC50 on mTRPC5 (TRPC5 HEK-FITR cells, fluo-4, 200 nM trypsin, read-out: IC50, inhibition of trypsin-induced Ca2+ entry via TRPC5) worked out at 11.8 µM. At mTRPC5 (fit to Hill model), the “Hill slope n, inhibition of TRPC5-mediated Ca2+ entry” value was determined as 2.5.

These data come from article PMC3328449, “Inhibition of Diacylglycerol–Sensitive TRPC Channels by Synthetic and Natural Steroids” (PLoS ONE, 2012).
